23 compounds from US12312355B2, “1H-[1, 2, 3]triazolo[4, 5-h] quinazoline compounds acting as protein kinase inhibitors” (CHENGDU CYNOGEN BIO-PHARMACEUTICAL TECHNOLOGY CO., LTD., priority 2019, dated 2025) can be followed below.

Each structure is given as a SMILES string. Counter-ions that a name gives are not always drawn.

In one assay the target is CDK4/cyclin D3 (Homo sapiens (Human), UniProt P11802). The experiment in a line: Kinase activity assay, Caliper Mobility Shift Assay, CDK4/cyclin D3. Particulars: class symbols. It counts as biochemical. The method, then:
The inhibitory effect of the compound on the kinase CDK4/cyclin D3 was tested by the Caliper Mobility Shift Assay method. The final test concentration of the compound was 10 concentrations, which started from […] and were obtained by three-fold dilution. 5 μL of 5-fold final concentration compound and 10 μL of CDK4/Cyclin D3 kinase solution with final concentration of 10 nM were added to the 384-well reaction plate respectively, and pre incubated at room temperature for 10 minutes (the negative control well contained 10 μL kinase buffer and 5 μL 5% DMSO; the positive control well contained 10 μL kinase solution and 5 μL 5% DMSO). The mixture of 10 μL ATP with a final concentration of 250 μM and the corresponding substrate peptide was added to initiate the reaction, and the mixture was reacted at room temperature for 150 minutes. 30 μL of stop test solution containing EDTA was added to stop the kinase reaction. Conversion rate was read by Caliper EZ Reader. Conversion inhibition rate %=(average conversion rate of positive control %−sample conversion rate %)/(average conversion rate of positive control %−average conversion rate of negative control %). Wherein: the negative control well represents conversion rate reading of wells without enzyme activity; the positive control well represents conversion rate reading of wells without compound inhibition. The log value of concentration was taken as the X-axis and the percentage inhibition rate was the Y-axis. […] Calculation formula: Y=Bottom+(Top−Bottom)/(1+10^((Log IC50−X)*HillSlope)).

The target in another assay is CDK6/cyclin D3 (Homo sapiens (Human), UniProt Q00534). The experiment in a line: Kinase activity assay, Caliper Mobility Shift Assay, CDK6/cyclin D3. It counts as biochemical. Particulars: class symbols.
Chain of CDK6/cyclin D3 (Q00534 whole entry, species assumed): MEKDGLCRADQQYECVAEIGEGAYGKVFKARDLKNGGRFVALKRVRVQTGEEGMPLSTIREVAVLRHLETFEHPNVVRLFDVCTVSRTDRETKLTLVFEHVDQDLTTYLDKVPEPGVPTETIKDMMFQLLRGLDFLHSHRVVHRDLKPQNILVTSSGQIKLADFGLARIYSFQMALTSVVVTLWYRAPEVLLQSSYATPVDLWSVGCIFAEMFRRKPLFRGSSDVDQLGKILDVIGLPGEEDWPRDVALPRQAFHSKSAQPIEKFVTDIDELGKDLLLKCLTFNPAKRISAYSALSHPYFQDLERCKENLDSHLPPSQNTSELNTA
Chain of CDK6/cyclin D3 (P30281 whole entry partner, species assumed): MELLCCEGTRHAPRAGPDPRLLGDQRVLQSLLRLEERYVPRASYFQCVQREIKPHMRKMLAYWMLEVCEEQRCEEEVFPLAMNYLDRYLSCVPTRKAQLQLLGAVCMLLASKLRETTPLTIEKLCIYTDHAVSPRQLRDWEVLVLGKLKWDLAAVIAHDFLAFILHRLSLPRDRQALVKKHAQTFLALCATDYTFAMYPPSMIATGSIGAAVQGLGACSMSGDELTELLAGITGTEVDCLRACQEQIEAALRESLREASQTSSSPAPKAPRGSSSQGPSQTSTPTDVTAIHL

Chain of CDK4/cyclin D3 (P11802 whole entry, species assumed): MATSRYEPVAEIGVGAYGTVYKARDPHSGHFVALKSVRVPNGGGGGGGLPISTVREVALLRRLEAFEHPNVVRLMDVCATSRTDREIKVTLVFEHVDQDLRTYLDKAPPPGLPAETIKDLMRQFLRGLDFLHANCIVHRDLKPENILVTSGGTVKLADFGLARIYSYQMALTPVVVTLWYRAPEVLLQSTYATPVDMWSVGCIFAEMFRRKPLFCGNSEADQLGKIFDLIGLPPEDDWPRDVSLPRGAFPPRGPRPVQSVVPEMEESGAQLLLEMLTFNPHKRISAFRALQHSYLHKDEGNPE
Chain of CDK4/cyclin D3 (P30281 whole entry partner, species assumed): as the sequence (P30281 whole entry partner, species assumed) above

Usually IC50 stands for the midpoint of a concentration-inhibition curve. On to `CC(C)n1nnc2ccc3cnc(Nc4ccc(N5CC6(CCNCC6)C5)cn4)nc3c21` [Compound I-17, N-(5-(2,7-Diazaspiro[3.5]nonan-2-yl)pyridin-2-yl)-1-isopropyl-1H-[1,2,3]tri-azolo[4,5-h]quinazolin-8-amine hydrochloride], for which the IC50 at CDK4/cyclin D3 is < 10 nM; on CDK6/cyclin D3 it was 10 to 50 nM.

`CC(C)n1nnc2ccc3cnc(Nc4ccc(C5CCNCC5)cn4)nc3c21` [Compound I-12, 1-Isopropyl-N-(5-(piperidin-4-yl)pyri-din-2-yl)-1H-[1,2,3]triazolo[4,5-h]quin-azolin-8-amine hydrochloride]: the IC50 at CDK4/cyclin D3 and on CDK6/cyclin D3 was < 10 nM in each case.

Consider `Cc1cc(Nc2ncc3ccc4nnn(C(C)C)c4c3n2)ncc1N1CCNCC1` [Compound I-2, 1-Isopropyl-N-(4-methyl-5-(piperazin-1-yl)pyridin-2-yl)-1H-[1,2,3]triazolo[4,5-h]quinazolin-8-amine hydrochloride], for which the values for the IC50 at CDK4/cyclin D3 and at CDK6/cyclin D3 were 10 to 50 nM and 50 to 100 nM, respectively.

On to `CCN1CCN(c2ccc(Nc3ncc4ccc5nnn(C(C)C)c5c4n3)nc2)CC1` [Compound I-5, N-(5-(4-Ethylpiperazin-1-yl)pyridin-2-yl)-1-isopropyl-1H-[1,2,3]triazolo[4,5-h]quinazolin-8-amine hydrochloride], for which the concentration for half-maximal inhibition (IC50) on CDK4/cyclin D3 and on CDK6/cyclin D3 was < 10 nM in each case.

Turning to `CCN1CCN(Cc2ccc(Nc3ncc4ccc5nnn(C(C)C)c5c4n3)nc2)CC1` [Compound I-10, N-(5-((4-Ethylpiperazin-1-yl)methyl)pyridin-2-yl)-1-isopropyl-1H-[1,2,3]tri-azolo[4,5-h]quinazolin-8-amine hydrochloride], the figures for the IC50 on CDK4/cyclin D3 and at CDK6/cyclin D3 were < 10 nM and 10 to 50 nM, respectively.

For the compound `CCN1CCN(c2ccc(Nc3ncc4ccc5nnn(CC(C)C)c5c4n3)nc2)CC1` [Compound I-20, N-(5-(4-Ethylpiperazin-1-yl)pyridin-2-yl)-1-isobutyl-1H-[1,2,3]triazolo[4,5-h] quinazolin-8-amine], the IC50 at CDK4/cyclin D3 was < 10 nM; at CDK6/cyclin D3, 10 to 50 nM.

For `CC(C)n1nnc2ccc3cnc(Nc4ccc(N5CCN(C6CC6)CC5)cn4)nc3c21` [Compound I-8, N-(5-(4-Cyclopropylpiperazin-1-yl)py-ridin-2-yl)-1-isopropyl-1H-[1,2,3]tri-azolo[4,5-h]quinazolin-8-amine hydrochloride], the 50% inhibitory concentration (IC50) is < 10 nM on CDK4/cyclin D3 and 10 to 50 nM at CDK6/cyclin D3.

Take `CC(C)n1nnc2ccc3cnc(Nc4ccc(N5CCNCC5)nn4)nc3c21` [Compound I-13, 1-Isopropyl-N-(6-(piperazin-1-yl)pyri-dazin-3-yl)-1H-[1,2,3]triazolo[4,5-h]quin-azolin-8-amine hydrochloride]: the IC50 on CDK4/cyclin D3 was < 10 nM; at CDK6/cyclin D3, 10 to 50 nM.

Turning to `CC(C)Cn1nnc2ccc3cnc(Nc4ccc(N5CCOCC5)cn4)nc3c21` [Compound I-21, 1-Isobutyl-N-(5-morpholinopyridin-2-yl)-1H-[1,2,3]triazolo[4,5-h]quinazolin-8-amine], the IC50 lay in the range of 10 to 50 nM at CDK4/cyclin D3 and 50 to 100 nM at CDK6/cyclin D3.

Consider `CC(C)n1nnc2ccc3cnc(Nc4ccc(N5CCN(C)CC5)cn4)nc3c21` [Compound I-4, 1-Isopropyl-N-(5-(4-methylpiperazin-1-yl)pyridin-2-yl)-1H-[1,2,3]triazolo[4,5-h]quinazolin-8-amine hydrochloride], for which the IC50 on CDK4/cyclin D3 and at CDK6/cyclin D3 was < 10 nM in each case.

`Cc1nc(Nc2ncc3ccc4nnn(C(C)C)c4c3n2)ccc1N1CCNCC1` [Compound I-3, 1-Isopropyl-N-(6-methyl-5-(piperazin-1-yl)pyridin-2-yl)-1H-[1,2,3]triazolo[4,5-h]quinazolin-8-amine hydrochloride]: the IC50 at CDK4/cyclin D3 and on CDK6/cyclin D3 was < 10 nM each time.

As to `CC(C)n1nnc2ccc3cnc(Nc4ccc(N5CCS(=O)(=O)CC5)cn4)nc3c21` [Compound I-15, 4-(6-((1-Isopropyl-1H-[1,2,3]triazolo[4,5-h]quinazolin-8-yl)amino)pyridin-3-yl)thiomorpholine 1,1-dioxide hydrochloride], the values for the IC50 on CDK4/cyclin D3 and at CDK6/cyclin D3 were < 10 nM and 10 to 50 nM, respectively.

Consider `COc1ccc2cc(Nc3ncc4ccc5nnn(C(C)C)c5c4n3)ccc2n1` [Compound I-16, 1-Isopropyl-N-(2-methoxyquinolin-6-yl)-1H-[1,2,3]triazolo[4,5-h]quinazolin-8-amine hydrochloride], for which the IC50 on CDK4/cyclin D3 and at CDK6/cyclin D3 was < 10 nM throughout.

Take `CC(C)n1nnc2ccc3cnc(Nc4ccc(N5CCNCC5)cn4)nc3c21` [Compound I-1, 1-Isopropyl-N-(5-(piperazin-1-yl)pyridin-2-yl)-1H-[1,2,3]triazolo[4,5-h]quinazolin-8-amine hydrochloride]: the IC50 on CDK4/cyclin D3 and on CDK6/cyclin D3 was < 10 nM in each case.

On to `CC(C)Cn1nnc2ccc3cnc(Nc4ccc(N5CCN(C)CC5)cn4)nc3c21` [Compound I-19, 1-Isobutyl-N-(5-(4-methylpiperazin-1-yl)pyridin-2-yl)-1H-[1,2,3]triazolo[4,5-h]quinazolin-8-amine hydrochloride], for which the results for the IC50 at CDK4/cyclin D3 and on CDK6/cyclin D3 were < 10 nM and 10 to 50 nM, respectively.

In the case of `CC(C)n1nnc2ccc3cnc(Nc4ccc(N5CCNCC5=O)cn4)nc3c21` [Compound I-14, 1-(6-((1-Isopropyl-1H-[1,2,3]triazolo[4,5-h]quinazolin-8-yl)amino)pyridin-3-yl)piperazin-2-one hydrochloride], the IC50 at CDK4/cyclin D3 is < 10 nM; at CDK6/cyclin D3, 10 to 50 nM.

As to `CN1CCN(c2ccc(Nc3ncc4ccc5nnn(C6CCCC6)c5c4n3)nc2)CC1` [Compound I-23, 1-Cyclopentyl-N-(5-(4-methylpiperazin-1-yl)pyridin-2-yl)-1H-[1,2,3]triazolo[4,5-h] quinazolin-8-amine], the results for the half-inhibitory concentration (IC50) on CDK4/cyclin D3 and at CDK6/cyclin D3 were < 10 nM and 10 to 50 nM, respectively.

Regarding `CC(C)Cn1nnc2ccc3cnc(Nc4ccc(N5CCNCC5)cn4)nc3c21` [Compound I-18, 1-Isobutyl-N-(5-(piperazin-1-yl)pyridin-2-yl)-1H-[1,2,3]triazolo[4,5-h]quina-zolin-8-amine], the IC50 was < 10 nM on CDK4/cyclin D3 and 10 to 50 nM on CDK6/cyclin D3.

Consider `c1cc(Nc2ncc3ccc4nnn(C5CCCC5)c4c3n2)ncc1N1CCNCC1` [Compound I-22, 1-Cyclopentyl-N-(5-(piperazin-1-yl)pyridin-2-yl)-1H-[1,2,3]triazolo[4,5-h]quinazolin-8-amine hydrochloride], for which the IC50 at CDK4/cyclin D3 and at CDK6/cyclin D3 was < 10 nM each time.

On to `CC(C)N1CCN(c2ccc(Nc3ncc4ccc5nnn(C(C)C)c5c4n3)nc2)CC1` [Compound I-7, 1-Isopropyl-N-(5-(4-isopropylpiperazin-1-yl)pyridin-2-yl)-1H-[1,2,3]triazolo [4,5-h]quinazolin-8-amine hydrochloride], for which the IC50 at CDK4/cyclin D3 and at CDK6/cyclin D3 was < 10 nM throughout.

Regarding `CC(C)n1nnc2ccc3cnc(Nc4ccc(N5CCOCC5)cn4)nc3c21` [Compound I-6, 1-Isopropyl-N-(5-morpholinopyridin-2-yl)-1H-[1,2,3]triazolo[4,5-h]quinazo-lin-8-amine hydrochloride], the IC50 was < 10 nM on CDK4/cyclin D3 and 10 to 50 nM on CDK6/cyclin D3.

With `CC(C)n1nnc2ccc3cnc(Nc4ccc(N5CCC(N(C)C)CC5)cn4)nc3c21` [Compound I-11, N-(5-(4-(Dimethylamino)piperidin-1-yl)pyridin-2-yl)-1-isopropyl-1H-[1,2,3] triazolo[4,5-h]quinazolin-8-amine hydrochloride], the concentration for half-maximal inhibition (IC50) at CDK4/cyclin D3 and on CDK6/cyclin D3 was < 10 nM in each case.

Consider `CC(C)CN1CCN(c2ccc(Nc3ncc4ccc5nnn(C(C)C)c5c4n3)nc2)CC1` [Compound I-9, N-(5-(4-Isobutylpiperazin-1-yl)pyridin-2-yl)-1-isopropyl-1H-[1,2,3]triazolo [4,5-h]quinazolin-8-amine hydrochloride], for which the IC50 at CDK4/cyclin D3 and on CDK6/cyclin D3 was < 10 nM in each case.
